Source: ChEMBL document CHEMBL1136487, “Novel non-vanilloid VR1 antagonist of high analgesic effects and its structural requirement for VR1 antagonistic effects” (Bioorg Med Chem Lett, 2003)

Molecular target: Vanilloid receptor (Rattus norvegicus, UniProt Q9ERZ8+Q9WUD2+O35433)
Assay: Inhibition of [Ca2+] uptake in dorsal root ganglion (DRG) neurons from neonatal Sprague-Dawley rat
Assay type: functional, tissue-based

Compound `CC(C)(C)c1ccc(C/N=C(\S)NCc2cccc(F)c2)cc1` has an IC50 of over 30000 nM.
In the case of `CC(C)(C)c1ccc(CNC(=S)NCc2ccc(NS(C)(=O)=O)c(F)c2)cc1`, the IC50 is reported as 37 nM.
For `Oc1cc2c(cc1O)CN(C(=S)NCCc1ccc(Cl)cc1)CCC2` [CAPSAZEPINE], the IC50 was 590 nM.
